Laboratory results published in patent US12667735B2, “Methods for reducing pain during photodynamic therapy of actinic keratosis” (Sun Pharmaceutical Industries, Inc., priority 2019, dated 2026).
Entries after “also recorded” stand apart in the source; their conditions may differ.

Assays:
[1] = Daily home questionnaire of side effects, first 4 days after PDT; type: in vivo, human; conditions: for Pain Score Mean (0-10 visual-analog scale): average of 23 patients
Procedure: (§1) Several secondary endpoints were also measured. For pain assessment, patients were asked every 5 to 10 min during illumination to report their pain on a 0 to 10 visual-analog (VAS) scale. Erythema was recorded photographically at Day 1 and on Day 4 post PDT. A side effect profile was recorded by each patient in a daily home questionnaire to document the presence or absence of eleven different signs and symptoms in the 4 days immediately following PDT (see Table 2).

[2] = Erythema after PDT, recorded photographically; type: in vivo, human; conditions: 1-4 days after PDT; majority of patients
Procedure: as §1

[3] = system: actinic keratoses (AK) lesions of face and scalp; assay: AK lesion clearance, bilaterally controlled randomized clinical trial of ALA blue light PDT

- Spotty erythema (inflamed AK lesions), Side A versus Side B [2]: approximately equal on Side A and Side B
Compound: NCC(=O)CCC(=O)O [ALA, 5-aminolevulinic acid]
- Swelling ([1]; Side A (test PDT), DAY 4): 0, 0 percentage of patients
- Pain Score Mean (0-10 visual-analog scale) ([1]; Side A (test PDT), DAY 4): 1.0, 1.0
- Bleeding ([1]; Side B (control PDT), DAY 1): 0, 0 percentage of patients
- Blisters ([1]; Side B (control PDT), DAY 1): 13, 13 percentage of patients
- Burning ([1]; Side B (control PDT), DAY 1): 65, 65 percentage of patients
- Crusting ([1]; Side B (control PDT), DAY 1): 4 percentage of patients
- Itching ([1]; Side B (control PDT), DAY 1): 43, 43 percentage of patients
- Open sores ([1]; Side B (control PDT), DAY 1): 0, 0 percentage of patients
- Peeling ([1]; Side B (control PDT), DAY 1): 0 percentage of patients
- Redness ([1]; Side B (control PDT), DAY 1): 91, 91 percentage of patients
- Stinging ([1]; Side B (control PDT), DAY 1): 65, 65 percentage of patients
- Swelling ([1]; Side B (control PDT), DAY 1): 22 percentage of patients
- Pain Score Mean (0-10 visual-analog scale) ([1]; Side B (control PDT), DAY 1): 2.9
- Bleeding ([1]; Side B (control PDT), DAY 2): 0 percentage of patients
- Blisters ([1]; Side B (control PDT), DAY 2): 9 percentage of patients
- Burning ([1]; Side B (control PDT), DAY 2): 52, 52 percentage of patients
- Crusting ([1]; Side B (control PDT), DAY 2): 17 percentage of patients
- Itching ([1]; Side B (control PDT), DAY 2): 74, 74 percentage of patients
- Open sores ([1]; Side B (control PDT), DAY 2): 9, 9 percentage of patients
- Peeling ([1]; Side B (control PDT), DAY 2): 9 percentage of patients
- Redness ([1]; Side B (control PDT), DAY 2): 100, 100 percentage of patients
- Stinging ([1]; Side B (control PDT), DAY 2): 70, 70 percentage of patients
- Swelling ([1]; Side B (control PDT), DAY 2): 26, 26 percentage of patients
- Pain Score Mean (0-10 visual-analog scale) ([1]; Side B (control PDT), DAY 2): 2.4
- Bleeding ([1]; Side B (control PDT), DAY 3): 4 percentage of patients
- Blisters ([1]; Side B (control PDT), DAY 3): 13 percentage of patients
- Burning ([1]; Side B (control PDT), DAY 3): 35, 35 percentage of patients
- Crusting ([1]; Side B (control PDT), DAY 3): 26 percentage of patients
- Itching ([1]; Side B (control PDT), DAY 3): 65 percentage of patients
- Open sores ([1]; Side B (control PDT), DAY 3): 9, 9 percentage of patients
- Peeling ([1]; Side B (control PDT), DAY 3): 26 percentage of patients
- Redness ([1]; Side B (control PDT), DAY 3): 87 percentage of patients
- Stinging ([1]; Side B (control PDT), DAY 3): 39, 39 percentage of patients
- Swelling ([1]; Side B (control PDT), DAY 3): 13 percentage of patients
- Pain Score Mean (0-10 visual-analog scale) ([1]; Side B (control PDT), DAY 3): 1.5
- Bleeding ([1]; Side B (control PDT), DAY 4): 13 percentage of patients
- Blisters ([1]; Side B (control PDT), DAY 4): 9 percentage of patients
- Burning ([1]; Side B (control PDT), DAY 4): 26, 26 percentage of patients
- Crusting ([1]; Side B (control PDT), DAY 4): 35, 35 percentage of patients
- Itching ([1]; Side B (control PDT), DAY 4): 65, 65 percentage of patients
- Open sores ([1]; Side B (control PDT), DAY 4): 4, 4 percentage of patients
- Peeling ([1]; Side B (control PDT), DAY 4): 52 percentage of patients
- Redness ([1]; Side B (control PDT), DAY 4): 74 percentage of patients
- Stinging ([1]; Side B (control PDT), DAY 4): 35, 35 percentage of patients
- Swelling ([1]; Side B (control PDT), DAY 4): 0, 0 percentage of patients
- Pain Score Mean (0-10 visual-analog scale) ([1]; Side B (control PDT), DAY 4): 1.0, 1.0
- Major inflammatory parameters, Side A versus Side B ([1]; first 4 days post-treatment): no noticeable differences
- Clinical response, Difference (A − B) ([3]; Face, 30 min cohort): −1.7%
- Clinical response (% reduction in AK counts at 3 months) ([3]; Face, 30 min cohort, Side A (test PDT, 30 min blue light)): 55.4%
- Clinical response (% reduction in AK counts at 3 months) ([3]; Face, 30 min cohort, Side B (control PDT)): 57.1%
- Clinical response, Difference (A − B) ([3]; Face, 45 min cohort): 1.1%
- Clinical response (% reduction in AK counts at 3 months) ([3]; Face, 45 min cohort, Side A (test PDT, 45 min blue light)): 59.8%
- Clinical response (% reduction in AK counts at 3 months) ([3]; Face, 45 min cohort, Side B (control PDT)): 58.6%
- Clinical response, Difference (A − B) ([3]; Face, 60 min cohort): −3.8%
- Clinical response (% reduction in AK counts at 3 months) ([3]; Face, 60 min cohort, Side A (test PDT, 60 min blue light)): 57.5%
- Clinical response (% reduction in AK counts at 3 months) ([3]; Face, 60 min cohort, Side B (control PDT)): 61.2%
- Clinical response, Difference (A − B) ([3]; Face, all patients): −1.4%
- Clinical response (% reduction in AK counts at 3 months) ([3]; Face, all patients, Side A (test PDT, substantially no pre-illumination gap)): 57.7%
- Clinical response (% reduction in AK counts at 3 months) ([3]; Face, all patients, Side B (control PDT, 1 hr pre-illumination gap, blue light 1000 sec)): 59.1%
- Clinical response, Difference (A − B) ([3]; Scalp, 30 min cohort): −1.2%
- Clinical response (% reduction in AK counts at 3 months) ([3]; Scalp, 30 min cohort, Side A (test PDT, 30 min blue light)): 44.8%
- Clinical response (% reduction in AK counts at 3 months) ([3]; Scalp, 30 min cohort, Side B (control PDT)): 46.0%
- Clinical response, Difference (A − B) ([3]; Scalp, 45 min cohort): 3%
- Clinical response (% reduction in AK counts at 3 months) ([3]; Scalp, 45 min cohort, Side A (test PDT, 45 min blue light)): 41.2%
- Clinical response (% reduction in AK counts at 3 months) ([3]; Scalp, 45 min cohort, Side B (control PDT)): 38.2%
- Clinical response, Difference (A − B) ([3]; Scalp, 60 min cohort): 3.7%
- Clinical response (% reduction in AK counts at 3 months) ([3]; Scalp, 60 min cohort, Side A (test PDT, 60 min blue light)): 45.2%
- Clinical response (% reduction in AK counts at 3 months) ([3]; Scalp, 60 min cohort, Side B (control PDT)): 41.5%
- Clinical response, Difference (A − B) ([3]; Scalp, all patients): 1.9%
- Clinical response (% reduction in AK counts at 3 months) ([3]; Scalp, all patients, Side A (test PDT, substantially no pre-illumination gap)): 43.8%
- Clinical response (% reduction in AK counts at 3 months) ([3]; Scalp, all patients, Side B (control PDT, 1 hr pre-illumination gap, blue light 1000 sec)): 41.9%
- Clinical efficacy (lesion clearance), test PDT versus control PDT ([3]; face and scalp, 3 months, test of non-inferiority): nearly identical on both sides of the face and scalp; also recorded: statistically indistinguishable
